# US20240239813A1, “KRAS INHIBITORS AND PHARMACEUTICAL USES THEREOF” (RISEN (SUZHOU) PHARMA TECH CO., LTD., priority 2022, published 2024)
# Legend:
# [1] = molecular target: His-tagged Human KRAS^G12D (Homo sapiens (Human), UniProt P01116, G12D); assay: HTRF KRAS G12D GTP binding assay; settings: displacement of GTP-Red tracer
# Method: KRAS^G12D was used in this assay.
# The ability of a test compound to bind to KRAS^G12D was measured by using an HTRF KRAS^G12D GTP Binding Kit (Cisbio, 63ADK000CB27PEG). […] 5 μL of compound solution was added to each well after serial dilution, followed by addition of 5 μL of GDP (50 nM) solution. After 30 minutes incubation at room temperature, 1×6His Eu cryptate antibody solution and GTP-Red tracer were added to the plate, then incubated for another 30 minutes. The HTRF signal was measured with a VICTOR Nivo multimode plate reader according to the manufacturer's instructions. The percent inhibition was calculated using the following formula: […]
# (where the “Maximum Signal” are wells containing DMSO without inhibitor; the “Minimum Signal” are wells containing reference inhibitory component (GDP); the “Test compound signal” are wells containing test compound (inhibitor) at established concentrations).
# IC50 was determined by fitting percent inhibition at each inhibitor concentration to the four-parameter nonlinear logistic equation using GraphPad Prism.
# GP2D = assay: Cell proliferation assay (CellTiterGlo), GP2D; format: cell-based; settings: Homo sapiens, 72 hours
# Method: (§1) A cell proliferation assay was used to evaluate inhibition by exemplary compounds. Proliferation assays used human tissue derived cancer cell lines, for example, AsPC-1 (Cobioer, CBP60546), GP2D (Cobioer, CBP60683), NCI-H358 (Cobioer, CBP60544), NCI-H727 (Cobioer, CBP60182), MKN-1 (Cobioer, CBP60486), HCT116 (ATCC, CCL-247), and HT-29 (Cobioer, CBP60011). Signal reflecting cell proliferation was detected with the CellTiterGlo kit (Promega, G7573).
# (§2) Cells were cultured in the growth phase and 3×10^3 cells per well were plated in a 96-well plate (Greiner, 655090). Cells were incubated 24 hours at 37° C. and 5% carbon dioxide in a humidity chamber. Serially diluted exemplary compounds were added to the plate which was then incubated for another 72 hours. Plates were brought to room temperature and an equal volume of CellTiterGlo reagent was added. After 10 minutes incubation at room temperature to stabilize the signal, the luminescent signal was measured on the VICTOR Nivo multimode plate reader according to the manufacturer's instructions. The signal was converted to percent inhibition using the following formula: […]
# (§3) (where the “Maximum Signal” are wells containing DMSO without inhibitor; the “Minimum Signal” are signal of wells recorded at Day 0 prior to commencement of the experiment; the “Test compound signal” are wells containing inhibitor at established concentrations).
# (§4) IC50 was determined by fitting percent inhibition at each inhibitor concentration to the four-parameter nonlinear logistic equation using GraphPad Prism. IC50 (nM) values of selected compounds are depicted in Table 4. “-”: means without measuring; and “ND” means not detected.
# NCI-H358 = assay: Cell proliferation assay (CellTiterGlo), NCI-H358; format: cell-based; settings: Homo sapiens, NCI-H358, 72 hours
# Method: as §1, §2, §3, §4
# NCI-H727 = assay: Cell proliferation assay (CellTiterGlo), NCI-H727; format: cell-based; settings: Homo sapiens, NCI-H727, 72 hours
# Method: as §1, §2, §3, §4
# MKN-1 = assay: Cell proliferation assay (CellTiterGlo), MKN-1; format: cell-based; settings: Homo sapiens, MKN-1, 72 hours
# Method: as §1, §2, §3, §4
# [2] = Microsomal stability assay, mouse liver microsomes; format: in vitro ADME; settings: CD-1, pooled mouse liver microsomes, 0.5 mg/mL protein
# Method: (§5) Test results from this assay were used to determine the metabolic liabilities of test compounds and allow focus on the improvement of drug candidates through structure-activity relationships. Pooled mouse/rat/human liver microsomes were used for this assay
# (§6) In vitro mouse (CD-1, BioIVT)/rat (SD, RILD)/human (Corning) liver microsomal suspensions at 0.5 mg/mL protein and 1.3 mM NADPH, 3.3 mM MgCl2 were pre incubated at 37° C. for 3 mins prior to addition of 0.1 mM test compound solution to give a final incubation concentration of 1 μM. Samples were incubated for 0, 15, 30, 60 minutes at 37° C. on a shaker (the positive control substance was cultured for 0 or 60 minutes). At the end of each incubation time both incubated and control samples were quenched with ice-cold stop solution containing internal standard. All samples were mixed by a plate shaker at 800 rpm for 5 minutes, then centrifuged at 4100 rpm for 15 minutes at 4° C. to precipitate protein. Supernatant was transferred to another 96-well plate, dilution solution was added to each supernatant well, and then each bioanalysis plate was sealed. The samples were mixed by plate shaker at 800 rpm for 5 minutes and then centrifuged at 4° C., 4100 rpm for 5 minutes. All samples were stored at 4° C. before LC-MS/MS analysis.
# (§7) The peak area ratio was converted to the remaining percentages (% Remaining) using the following formula: […]
# (§8) where % Remaining is the compound ratio (compound peak area/internal standard peak area) as a percentage of the 0 minute time point.
# (§9) The ln remaining percent of test articles were plotted against time and the gradient of the line determined; the gradient was converted to elimination rate constant by using the following formula:
# (§10) Elimination rate constant(ke)=−gradient
# (§11) Half time (T1/2) was determined using following formula: […]
# (§12) Hepatic intrinsic clearance (CLint(liver)) was determined by using the following formulas: […]
# (§13) The Intrinsic clearance of selected compounds is depicted in Table 6.
# [3] = Microsomal stability assay, rat liver microsomes; format: in vitro ADME; settings: SD, pooled rat liver microsomes, 0.5 mg/mL protein
# Method: as §5, §6, §7, §8, §9, §10, §11, §12, §13
# [4] = Microsomal stability assay, human liver microsomes; format: in vitro ADME; settings: pooled human liver microsomes, 0.5 mg/mL protein
# Method: as §5, §6, §7, §8, §9, §10, §11, §12, §13
# AsPC-1 = assay: Cell proliferation assay (CellTiterGlo), AsPC-1; format: cell-based; settings: Homo sapiens, ASPC1, AsPC-1, 72 hours
# Method: as §1, §2, §3, §4
# His-tagged Human KRAS^G12D, sequence (P01116-2 other isoform, or with tags, fused parts or gaps G12D): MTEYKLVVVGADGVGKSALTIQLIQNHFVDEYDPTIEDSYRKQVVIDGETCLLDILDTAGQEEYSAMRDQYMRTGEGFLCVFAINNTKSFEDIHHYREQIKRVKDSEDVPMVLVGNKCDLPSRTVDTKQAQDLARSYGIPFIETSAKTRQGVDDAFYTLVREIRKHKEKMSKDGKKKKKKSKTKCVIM
SMILES,IC50 [1] [nM],IC50 (NCI-H358) [nM],IC50 (NCI-H727) [nM],IC50 (MKN-1) [nM],CLint scaled at 1 μM [2] [mL/min/kg],CLint scaled at 1 μM [3] [mL/min/kg],CLint scaled at 1 μM [4] [mL/min/kg],IC50 (AsPC-1) [nM],IC50 (GP2D) [nM]
CCc1c(F)ccc2cc(O)cc(-c3ncc4c(N5CCC[C@@]6(CCO6)C5)nc(OC[C@@]56CCCN5C[C@H](F)C6)nc4c3F)c12 [Compound 67],–,–,–,–,1280,288,83.5,–,–
CCc1c(F)ccc2cc(O)cc(-c3ncc4c(N5CCC[C@]6(CCO6)C5)nc(OCC5(CN6CCC(F)CC6)CC5)nc4c3F)c12 [Compound 29a],4.3,25.1,14.7,–,1040,410,181,25,2.3
CCc1c(F)ccc2cc(O)cc(-c3ncc4c(N5CCC[C@]6(CCO6)C5)nc(OC[C@@]56CCCN5C[C@H](F)C6)nc4c3F)c12 [Compound 68],–,–,–,–,2270,311,124,–,–
CCc1c(F)ccc2cc(O)cc(-c3ncc4c(N5CCC[C@]6(CCO6)C5)nc(OCC(C)(C)CN(C)C)nc4c3F)c12 [Compound 26a],13.3,98.5,37.4,–,–,–,–,30.8,4.5
CCc1c(F)ccc2cc(O)cc(-c3ncc4c(N5CCC[C@]6(CCO6)C5)nc(OCC5(CN6CCC7(CC6)CC(N6CCOCC6)C7)CC5)nc4c3F)c12 [Compound 20a],4.7,125,–,–,–,–,–,–,4.7
CCc1c(F)ccc2cc(O)cc(-c3ncc4c(N5CCC[C@]6(CCO6)C5)nc(OCC5(CN6CCC(C(=O)O)CC6)CC5)nc4c3F)c12 [Compound 33a],10.3,> 10000,–,–,–,–,–,–,421
CCc1c(F)ccc2cc(O)cc(-c3ncc4c(N5CCCC6(CCO6)C5)nc(OCC5(CN6CCOCC6)CC5)nc4c3F)c12 (stereo not drawn) [Compound 2a],18.8,–,–,–,2630,887,402,–,–
CCc1c(F)ccc2cc(O)cc(-c3ncc4c(N5CCC[C@]6(CCO6)C5)nc(OCC5(CN6CCC7(CC6)CC(N6CCC(c8ccc9cnn(C)c9c8)CC6)C7)CC5)nc4c3F)c12 [Compound 19a],16.1,15.2,–,–,–,–,–,–,14.1
CCc1c(F)ccc2cc(O)cc(-c3ncc4c(N5CCC[C@]6(CCO6)C5)nc(OCC5(CN(CC)CC)CC5)nc4c3F)c12 [Compound 27a],12.7,40.5,24.8,–,–,–,–,32,3.07
CCc1c(F)ccc2cc(O)cc(-c3ncc4c(N5CCC[C@]6(CCO6)C5)nc(OCC5(CN6CCC7(CC6)COC7)CC5)nc4c3F)c12 [Compound 18a],4.5,23,–,–,–,–,–,–,1.9
CCc1c(F)ccc2cc(O)cc(-c3ncc4c(N5CCC[C@]6(CCO6)C5)nc(OCC5(CN6CCCCC6)CC5)nc4c3F)c12 [Compound 9a],7.9,18.5,15,–,–,–,–,20.1,1.6
CCc1c(F)ccc2cc(O)cc(-c3ccc4c(N5CCC[C@]6(CCO6)C5)nc(OCC5(CN(C)C)CC5)nc4c3F)c12 [Compound 15a],19.6,–,–,–,371,52.9,31.8,–,–
CCc1c(F)ccc2cc(O)cc(-c3ncc4c(N5CCCC6(CCO6)C5)nc(OCC5(CN(C)C)CC5)nc4c3F)c12 (stereo not drawn) [Compound 73],10.7,–,–,–,361,51.1,32.4,–,–
CCc1c(F)ccc2cc(O)cc(-c3ncc4c(N5CCC[C@]6(CCO6)C5)nc(OCC5(CN6CC(F)(F)C6)CC5)nc4c3F)c12 [Compound 28a],159,–,–,–,–,–,–,–,–
CCc1c(F)ccc2cc(O)cc(-c3ncc4c(N5C6CCC5COC6)nc(OC[C@@]56CCCN5C[C@H](F)C6)nc4c3F)c12 [Compound 12],> 1000,–,–,–,–,–,–,–,–
CCc1c(F)ccc2cc(O)cc(-c3ncc4c(N5CCC[C@]6(CCO6)C5)nc(OCC5(CN6CCC7(CC6)CC(N6CCCCC6)C7)CC5)nc4c3F)c12 [Compound 21a],6.8,92.2,–,–,–,–,–,–,16.3
CCc1c(F)ccc2cc(O)cc(-c3ncc4c(N5CCCC(O)CC5)nc(OCC5(CN(C)C)CC5)nc4c3F)c12 (stereo not drawn) [Compound 44a],234,–,–,–,–,–,–,–,–
CCc1c(F)ccc2cc(O)cc(-c3ncc4c(N5[C@H](CO)C[C@H]6C[C@H]65)nc(OC[C@@]56CCCN5C[C@H](F)C6)nc4c3F)c12 [Compound 57],510,–,–,–,–,–,–,–,–

# Second part, led by results:
IC50 [1] [nM],IC50 (NCI-H358) [nM],IC50 (NCI-H727) [nM],IC50 (MKN-1) [nM],CLint scaled at 1 μM [2] [mL/min/kg],CLint scaled at 1 μM [3] [mL/min/kg],CLint scaled at 1 μM [4] [mL/min/kg],IC50 (AsPC-1) [nM],SMILES,IC50 (GP2D) [nM]
261,3210,1870,4090,–,–,–,–,CCc1c(F)ccc2cc(O)cc(-c3ncc4c(N5CC[C@@H](O)C5)nc(OC[C@@]56CCCN5C[C@H](F)C6)nc4c3F)c12 [Compound 1],4220
> 1000,6600,4040,7880,–,–,–,–,CCc1c(F)ccc2cc(O)cc(-c3ncc4c(N5C[C@H](O)C[C@H]5C(=O)OC)nc(OC[C@@]56CCCN5C[C@H](F)C6)nc4c3F)c12 [Compound 4],1630
> 1000,7980,5310,> 10000,–,–,–,–,CCc1c(F)ccc2cc(O)cc(-c3ncc4c(N5CCC[C@H]5C(=O)OC)nc(OC[C@@]56CCCN5C[C@H](F)C6)nc4c3F)c12 [Compound 7],–
–,1660,1080,1780,–,–,–,–,CCc1c(F)ccc2cc(O)cc(-c3ncc4c(N5CCC[C@H]5CO)nc(OC[C@@]56CCCN5C[C@H](F)C6)nc4c3F)c12 [Compound 3],1570
185,6320,> 10000,> 10000,–,–,–,–,CCc1c(F)ccc2cc(O)cc(-c3ncc4c(N5C[C@H](O)C[C@H]5CO)nc(OC[C@@]56CCCN5C[C@H](F)C6)nc4c3F)c12 [Compound 2],1320
1390,> 10000,> 10000,> 10000,–,–,–,–,CCc1c(F)ccc2cc(O)cc(-c3ncc4c(N5CCC[C@H]5C(N)=O)nc(OC[C@@]56CCCN5C[C@H](F)C6)nc4c3F)c12 [Compound 6],–
> 1000,–,–,–,–,–,–,–,CCc1c(F)ccc2cc(O)cc(-c3ncc4c(N5CCCC56COC6)nc(OC[C@@]56CCCN5C[C@H](F)C6)nc4c3F)c12 [Compound 14],–
> 1000,–,–,–,–,–,–,–,CCc1c(F)ccc2cc(O)cc(-c3ncc4c(N5CC6(CCC6=O)C5)nc(OC[C@@]56CCCN5C[C@H](F)C6)nc4c3F)c12 [Compound 112],–
> 1000,–,–,–,–,–,–,–,CCc1c(F)ccc2cc(O)cc(-c3ncc4c(N5C[C@H]6C[C@@H]5C(=O)N6)nc(OC[C@@]56CCCN5C[C@H](F)C6)nc4c3F)c12 [Compound 46],–
